Experimental findings from patent US20250034586A1, “METHOD FOR EDITING BANANA GENES” (Tropic Biosciences UK Limited, priority 2021, published 2025) are described below.

Structures are written as SMILES.

Assay [1] deals with banana embryos or leaf material. Briefly: Comparison of selection using ALS inhibitor, G418 or hygromycin (genotyping of embryos or leaf material). The format is cell-based. Conditions: embryos. The source says:
In every case, regenerated material was transformed with constructs containing T-DNA that would generate resistance in positive transformants.

Assay [2] deals with ACO1, Ma01_g11540. Briefly: Trait co-editing in selected embryos (PBE #3). Conditions: G418 selection. The class given is cell-based, banana. The method, then: (§1) We transformed ECS as described previously in Example 6, using the new co-editing plasmids detailed in Table 11 above. Embryos were regenerated as detailed previously, either on media without selection, with 25 mg/L G418, 25 μg/L CSF or 50 μg/L CSF. Initial genotyping of all plasmids tested:
(§2) • All with CsVMV-rAPOBEC1 CBE (rAPOBEC+nCas9 (D10A) PBE from Zong et al. 2017*) and nosP-NptII • pMol_0925 (sgGFP-pNOS::Kan::tOCS-pCsVMV::nCas9PBE1::tg7-Dummy-pTaU6::sg1GFP_58-pTaU6::sg2GFP_59) • pMol_0934 (sgGFP, sgALS1-pNOS::Kan::tOCS-pCsVMV::nCas9PBE1::tg7-taU6::MaALS1sg2_2021-pTaU6::sg1GFP_58-pTaU6::sg2GFP_59) • pMol_0935 (sgGFP, sgALS2-pNOS::Kan::tOCS-pCsVMV::nCas9PBE1::tg7-taU6::MaALS2sg2_2023-pTaU6::sg1GFP_58-pTaU6::sg2GFP_59) • pMol_0926 (sgPPO2, sgALS1-pNOS::Kan::tOCS-pCsVMV::nCas9PBE1::tg7-taU6::MaALS1sg2_2021-pTaU6::sg1PPO2_2961-pTaU6::sg2PPO2_2962-pTaU6::sg3PPO2_2963) • pMol_0927 (sgPPO2, sgALS1-pNOS::Kan::tOCS-pCsVMV::nCas9PBE1::tg7-taU6::MaALS1sg2_2021-pTaU6::sg3PPO2_2963-pTaU6::sg4PPO2_2964) • pMol_0928 (sgACO1, sgALS1-pNOS::Kan::tOCS-pCsVMV::nCas9PBE1::tg7-taU6::MaALS1sg2_2021-pTaU6::sg1ACO1_2965-pTaU6::sg2ACO1_2966-pTaU6::sg3ACO1_2967) • pMol_0929 (sgPPO2, sgALS2-pNOS::Kan::tOCS-pCsVMV::nCas9PBE1::tg7-taU6::MaALS2sg2_2023-pTaU6::sg1PPO2_2961-pTaU6::sg2PPO2_2962-pTaU6::sg3PPO2_2963) • pMol_0930 (sgPPO2, sgALS2-pNOS::Kan::tOCS-pCsVMV::nCas9PBE1::tg7-taU6::MaALS2sg2_2023-pTaU6::sg3PPO2_2963-pTaU6::sg4PPO2_2964) • pMol_0931 (sgACO1, sgALS2-pNOS::Kan::tOCS-pCsVMV::nCas9PBE1::tg7-taU6::MaALS2sg2_2023-pTaU6::sg1ACO1_2965-pTaU6::sg2ACO1_2966-pTaU6::sg3ACO1_2967) ECS were left to ‘recover’ after transformation for 1 week in CS+cefo 300 mg/L. We regenerated embryos in 4 different conditions: • 1. No selection • 2. Stable G418 selection (in EDM only 2-3 months) from PBE #3 only (PBE #1/2 plasmids only have mCherry, not NptII) • 3. 25 μg/L chlorsulfuron (in EDM only 2-3 months) • 4. 50 μg/L chlorsulfuron (in EDM only 2-3 months)
(§3) gDNA from embryos and plantlets was extracted and qPCR was used to test for the presence of integrated tDNA in the plant genome. Three independent qPCRs were run on each sample with different sets of primers (listed below) spanning the tDNA, ranging from the left to right border. An additional qPCR was run on an endogenous banana gene (actin) for normalisation of Ct values. All qPCRs were run on the LightCycler® 96 System (Roche) using PowerUp™ SYBR® Green Master Mix (Thermo Fisher Scientific™).
(§4) For edit validation, amplicons for each target gene (als1, als2, ppo2, aco1) were made using Q5® High-Fidelity 2× Master Mix (New England Biolabs, NEB) using reaction settings listed below. PCR products were purified using Monarch® PCR & DNA Cleanup Kit (NEB) according to manufacturer's specifications. The amplicons were after validated by Sanger sequencing.

Assay [3] relates to PPO2, Ma07_g03540. Description: Trait co-editing in selected embryos (PBE #3). The class given is cell-based, banana. Particulars: G418 selection. As for the experimental part:
as §1, §2, §3, §4

As to `CN[C@@H]1[C@@H](O)[C@@H](O[C@@H]2[C@@H](O)[C@H](O[C@H]3O[C@H]([C@@H](C)O)[C@@H](O)[C@H](O)[C@H]3N)[C@@H](N)C[C@H]2N)OC[C@]1(C)O` [Plasmid G418], in assay [1] (stable selection), the Editing frequency is listed as 17/28 = 60.7% and the Transgenic frequency is 18/28 = 64.3%. Moreover, in assay [1] (transient selection), the Editing frequency is recorded as 35/867 = 4.0%, the Non-transgenic edited is on record as 0/774 = 0% and the Transgenic frequency is on record as 95/943 = 10.1%. Moreover, the “Percentage edited ACO1 embryos” value in assay [2] worked out at 33.33. In addition, the “ACO1 edited embryos total” value in assay [2] (6 embryos tested) was 2. Further, the “Percentage edited PPO2 embryos” value in assay [3] amounted to 31.25. In assay [3] (16 embryos tested), the “PPO2 edited embryos total” value is given as 5.
